Article PMC11532494 (Nature Communications, 2024)
Several values for one entry are separate records, joined by “and”; a condition that tells them apart may be missing. Identical values can stand only once. Like-named read-outs stand apart in the source and are kept apart here. No end group written: not given here. *: point of attachment. AMC = Cc1cc(=O)oc2cc(N*)ccc12

Tests used:
[1] = tested on: VsHdaH (1b); type: biochemical, Vibrio sp.; details: VKDAC
[2] = tested on: RsPrpH (1b); assay: Substrate screening assay (acyl-peptide-AMC); type: biochemical, Rhizorhabdus sp.; details: RsPrpH (1b); for [AMC]: Transform RFU in [AMC]
[3] = target: RwDmhA (1b) (Rhizorhabdus wittichii, UniProt A0A067XIQ6); type: biochemical; details: RwDmhA (1b)
[4] = target: KpHdaH (1b) (Klebsiella pneumoniae, UniProt A0A377Z5F6); type: biochemical; details: KpHdaH (1b)
[5] = target: T1, BsAcuC (2c) (Bacillus subtilis, UniProt P39067); assay: Substrate screening assay (acyl-peptide-AMC); type: biochemical; details: BsAcuC (2c); for [AMC]: Transform RFU in [AMC]
T1 construct: made in house; host or cells: E. coli BL21 (DE3)
T1 sequence (P39067 1-387): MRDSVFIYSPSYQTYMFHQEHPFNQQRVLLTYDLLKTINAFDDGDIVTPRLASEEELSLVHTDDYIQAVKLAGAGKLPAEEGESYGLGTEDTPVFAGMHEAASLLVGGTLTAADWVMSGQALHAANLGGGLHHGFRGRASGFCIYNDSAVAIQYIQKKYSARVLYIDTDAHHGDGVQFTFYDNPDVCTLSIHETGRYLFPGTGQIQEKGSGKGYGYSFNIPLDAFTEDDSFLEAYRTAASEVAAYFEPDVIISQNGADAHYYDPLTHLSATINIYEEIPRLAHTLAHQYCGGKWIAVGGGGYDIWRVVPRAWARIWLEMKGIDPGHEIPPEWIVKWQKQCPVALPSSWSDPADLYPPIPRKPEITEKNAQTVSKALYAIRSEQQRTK
Description: (§1) Experiments with SIRT2 and SIRT5 were supplemented with NAD^+ (500 µM). Thereafter, a solution of trypsin (25 µL, 5.0 mg/mL; final concentration of 2.5 mg/mL) was added, and the development of the assay was allowed to proceed for 90 min at room temperature before fluorescence analysis. […] To this end, a single category is given to all conversions >48% on the heatmap. […] For the H4-derived peptide LGKbio no positive control was available.

[6] = tested on: VcHdaH (5b); type: biochemical, Vibrio cholerae; details: VcHdaH (5b); for [AMC]: Transform RFU in [AMC]
[7] = target: PsApaH (4) (Pseudomonas sp. M30-35, UniProt A0A1Y0KY79); type: biochemical; details: PsApaH (4)
Description: as §1

[8] = tested on: Controls; assay: Substrate screening assay (acyl-peptide-AMC), control enzymes; type: biochemical; details: for [AMC]: Transform RFU in [AMC]

QPKKoct (QPKK-{AMC}; not fully specified (residue 4); printed as QPKKoct; also: octanoyl-lysine (which Lys not given here); UniProt P04637 317-320, looked up, fragment)
Relative Fluorescene Units (RFU) ([1]; Transform RFU*2, Sample 1): 248 RFU | Relative Fluorescene Units (RFU) ([1]; Transform RFU*2, Sample 2): 194 RFU | Relative Fluorescene Units (RFU) ([1]; Sample 1): 124 RFU | Relative Fluorescene Units (RFU) ([1]; Sample 2): 97 RFU | Relative Fluorescene Units (RFU) ([2]; Sample 1): 4 RFU | Relative Fluorescene Units (RFU) ([2]; Sample 2): 72 RFU | [AMC] ([2]; Sample 1): 3.91 nM | [AMC] ([2]; Sample 2): 70.31 nM | Relative Fluorescene Units (RFU) ([2]; Transform RFU*2, Sample 1): 8 RFU | Relative Fluorescene Units (RFU) ([2]; Transform RFU*2, Sample 2): 144 RFU | Relative Fluorescene Units (RFU) ([3]; Sample 1): 53 RFU | Relative Fluorescene Units (RFU) ([3]; Sample 2): 75 RFU | Relative Fluorescene Units (RFU) ([3]; Transform RFU*2, Sample 1): 106 RFU | Relative Fluorescene Units (RFU) ([3]; Transform RFU*2, Sample 2): 150 RFU | Relative Fluorescene Units (RFU) ([4]; Sample 1): -13 RFU | Relative Fluorescene Units (RFU) ([4]; Sample 2): -43 RFU | Relative Fluorescene Units (RFU) ([4]; Transform RFU*2, Sample 1): -26 RFU | Relative Fluorescene Units (RFU) ([4]; Transform RFU*2, Sample 2): -86 RFU | Relative Fluorescene Units (RFU) ([5]; Sample 1): 2401 RFU | Relative Fluorescene Units (RFU) ([5]; Sample 2): 1622 RFU | [AMC] ([5]; Sample 1): 2344.73 nM | [AMC] ([5]; Sample 2): 1583.98 nM | Relative Fluorescene Units (RFU) ([5]; Transform RFU*2, Sample 1): 4802 RFU | Relative Fluorescene Units (RFU) ([5]; Transform RFU*2, Sample 2): 3244 RFU | [AMC] ([6]; Sample 1): 67.38 nM | [AMC] ([6]; Sample 2): 71.29 nM | Relative Fluorescene Units (RFU) ([6]; Transform RFU*2, Sample 1): 138 RFU | Relative Fluorescene Units (RFU) ([6]; Transform RFU*2, Sample 2): 146 RFU | Relative Fluorescene Units (RFU) ([6]; Sample 1): 69 RFU | Relative Fluorescene Units (RFU) ([6]; Sample 2): 73 RFU | Relative Fluorescene Units (RFU) ([7]; Sample 1): 88 RFU | Relative Fluorescene Units (RFU) ([7]; Sample 2): 73 RFU | Relative Fluorescene Units (RFU) ([7]; Transform RFU*2, Sample 1): 176 RFU | Relative Fluorescene Units (RFU) [8]: 6579 RFU and 10102 RFU | [AMC] ([8]; Controls, Sample 1): 6.4248 µM | [AMC] ([8]; Controls, Sample 2): 9.86523 µM | Relative Fluorescene Units (RFU) ([8]; Transform RFU*2, Controls, Sample 1): 13158 RFU | Relative Fluorescene Units (RFU) ([8]; Transform RFU*2, Controls, Sample 2): 20204 RFU
